Measurements reported in patent US20100298141A1, “SUBSTITUTED PYRIDINE N-OXIDE HERBICIDES” (E. I. DU PONT DE NEMOURS AND COMPANY, priority 2007, published 2010).

Assays:
common mallow = experiment: Test F preemergence test; type: in vivo, Malva sylvestris; conditions: scale 0 to 100
Description: (§1) Seeds of plant species selected from bermudagrass (Cynodon dactylon), Surinam grass (Brachiaria decumbens), large crabgrass (Digitaria sanguinalis), green foxtail (Setaria viridis), goosegrass (Eleusine indica), johnsongrass (Sorghum halepense), kochia (Kochia scoparia), pitted morningglory (Ipomoea lacunosa), purple nutsedge (Cyperus rotundus), common ragweed (Ambrosia elation), mustard (Brassica nigra), guineagrass (Panicum maximum), […] (Paspalum dilatatum), barnyardgrass (Echinochloa crus-galli), southern sandbur (Cenchrus echinatus), common sowthistle (Sonchus oleraceous), prickly […] spinosa), Italian ryegrass (Lolium multiflorum), common purslane (Portulaca oleracea), broadleaf signalgrass (Brachiaria platyphylla), common groundsel (Senecio vulgaris), common chickweed (Stellaria media), Virginia dayflower (Commelina virginica), annual bluegrass (Poa annua), naked crabgrass (Digitaria nuda), […] cochinchinensis), quackgrass (Elytrigia repens), Canada horseweed (Conyza canadensis), field bindweed (Convolvulus arvensis), […] (Bidens bipinnata), common mallow (Malva sylvestris), Russian thistle (Salsola kali), and sugarcane (Saccharum officinarum) were planted and treated preemergence with test chemicals formulated in a non-phytotoxic solvent mixture which included a surfactant. At a different time, sugarcane was treated with postemergence applications of some of the test chemicals formulated in the same manner. Plants were approximately 3- to 4-leaf stage for the postemergence treatments. Treated plants and controls were maintained in a greenhouse for 14 to 21 days, after which time all species were compared to controls and visually evaluated. […] A dash (-) response means no test result.

kochia = experiment: Test F preemergence test; type: in vivo, Kochia scoparia; conditions: preemergence, scale 0 to 100
In short: (§2)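 Test chemicals were formulated in a non-phytotoxic solvent mixture with surfactant and applied preemergence to planted seeds or postemergence to sugarcane plants. Plants were kept in a greenhouse for 14 to 21 days, then visually evaluated against controls.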

dallisgrass = experiment: Test F preemergence test; type: in vivo, Paspalum dilatatum; conditions: scale 0 to 100
In short: as §2

blackgrass = experiment: Test C pre-/postemergence test; type: in vivo, Alopecurus myosuroides
In short: (§3)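 Seeds were planted and treated preemergence with test chemical in a non-phytotoxic solvent mixture containing surfactant. Postemergence applications of the same formulation went onto plants 2 to 18 cm tall (1- to 4-leaf stage). A dash marks no test result.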

corn = experiment: Test A pre-/postemergence greenhouse test; type: in vivo, Zea mays; conditions: for Plant response rating, Corn: 0 to 100 scale where 0 is no effect and 100 is complete control; for Corn plant response rating: 0 to 100 scale
In short: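 Greenhouse herbicide screen, pre- and postemergence in parallel. Soil: loam plus sand. Formulation: non-phytotoxic solvent mix with surfactant. Postemergence stage: one to two leaves, 2–10 cm height. Evaluation: visual injury, compared with untreated controls, about 10 days after treatment.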

Surinam grass = experiment: Test F preemergence test; type: in vivo, Brachiaria decumbens; conditions: scale 0 to 100
In short: as §2

quackgrass = experiment: Test F preemergence test; type: in vivo, Elytrigia repens; conditions: scale 0 to 100
In short: as §2

green foxtail = experiment: Test C pre-/postemergence test; type: in vivo, Setaria viridis
In short: as §3

broadleaf signalgrass = experiment: Test F preemergence test; type: in vivo, Brachiaria platyphylla; conditions: scale 0 to 100
In short: as §2

Virginia dayflower = experiment: Test F preemergence test; type: in vivo, Commelina virginica; conditions: 16 g ai/ha, preemergence; scale 0 to 100
Description: as §1

mustard = experiment: Test F preemergence test; type: in vivo, Brassica nigra; conditions: scale 0 to 100
In short: as §2

prickly sida = experiment: Test F preemergence test; type: in vivo, Sida spinosa; conditions: scale 0 to 100
In short: as §2

bermudagrass = experiment: Test F preemergence test; type: in vivo, Cynodon dactylon; conditions: scale 0 to 100
In short: as §2

common ragweed = experiment: Test C pre-/postemergence test; type: in vivo, Ambrosia elation; conditions: for Plant response rating (0 to 100), Ragweed / Plant response rating, Ragweed: Postemergence; for Plant response rating, Ragweed: scale 0 to 100, 0 no effect, 100 complete control
In short: as §3

[1] = 62 g ai/ha, Preemergence, scale 0 to 100
[2] = 125 g ai/ha, preemergence, scale 0 (no effect) to 100 (complete control)
[3] = Postemergence, 62 g ai/ha, scale 0 to 100, 0 no effect, 100 complete control
[4] = Postemergence, 125 g ai/ha, scale 0 to 100, 0 no effect, 100 complete control
[5] = Preemergence, 31 g ai/ha, scale 0 to 100 (0 no effect, 100 complete control)
[6] = preemergence, 250 g ai/ha, scale 0 (no effect) to 100 (complete control)

## CCn1nc(C(F)(F)F)c(CS(=O)(=O)c2cc(C)cc[n+]2[O-])c1OCC(F)(F)F [Compound 64]
Common mallow; 16 g ai/ha, preemergence
  Plant response rating, Mallow: 0
Common mallow; 62 g ai/ha, Preemergence
  Mallow plant response rating: 75
Common mallow; 125 g ai/ha, preemergence
  Mallow plant response rating: 100
Common mallow; Preemergence, 31 g ai/ha
  Plant response rating, Mallow: 35
kochia; 16 g ai/ha
  Plant response rating, Kochia: 0
kochia; 125 g ai/ha
  Kochia plant response rating: 75
dallisgrass; 16 g ai/ha, preemergence
  Plant response rating, Dallisgrass: 0
dallisgrass; 62 g ai/ha, Preemergence
  Dallisgrass plant response rating: 70
dallisgrass; 125 g ai/ha, preemergence
  Dallisgrass plant response rating: 90
dallisgrass; Preemergence, 31 g ai/ha
  Plant response rating, Dallisgrass: 35
blackgrass; [1]
  Blackgrass plant response rating: 90
blackgrass; [2]
  Blackgrass plant response rating: 100
blackgrass; Postemergence, 31 g ai/ha
  Plant response rating (0 to 100), Blackgrass: 20
blackgrass; [3]
  Plant response rating, Blackgrass: 60
blackgrass; [4]
  Plant response rating, Blackgrass: 60
blackgrass; [5]
  Plant response rating, Blackgrass: 90
blackgrass; [6]
  Blackgrass plant response rating: 100
corn; Postemergence, 125 g ai/ha
  Plant response rating, Corn: 40
corn; Postemergence, 500 g ai/ha, 0 is no effect, 100 is complete control
  Corn plant response rating: 50
corn; Preemergence, 125 g ai/ha, 0 no effect, 100 complete control
  Corn plant response rating: 0
corn; Preemergence, 500 g ai/ha
  Plant response rating, Corn: 60
Surinam grass; 16 g ai/ha, preemergence
  Plant response rating, Surinam Grass: 10
Surinam grass; 125 g ai/ha, preemergence
  Surinam Grass plant response rating: 100
Surinam grass; Preemergence, 62 g ai/ha
  Plant response rating, Surinam Grass: 95
Surinam grass; Preemergence, 31 g ai/ha
  Plant response rating, Surinam Grass: 90
quackgrass; 16 g ai/ha, preemergence
  Plant response rating, Quackgrass: 40
quackgrass; 62 g ai/ha, Preemergence
  Quackgrass plant response rating: 95
quackgrass; 125 g ai/ha, preemergence
  Quackgrass plant response rating: 95
quackgrass; Preemergence, 31 g ai/ha
  Plant response rating, Quackgrass: 75
Green foxtail; [1]
  Foxtail, Green plant response rating: 100
Green foxtail; [2]
  Foxtail, Green plant response rating: 100
Green foxtail; Postemergence, 31 g ai/ha
  Plant response rating (0 to 100), Foxtail, Green: 0
Green foxtail; [3]
  Plant response rating, Foxtail, Green: 0
Green foxtail; [4]
  Plant response rating, Foxtail, Green: 50
Green foxtail; Postemergence, 250 g ai/ha, scale 0 to 100, 0 no effect, 100 complete control
  Plant response rating, Foxtail, Green: 80
Green foxtail; [5]
  Plant response rating, Foxtail, Green: 75
Green foxtail; [6]
  Foxtail, Green plant response rating: 100
Broadleaf signalgrass; 16 g ai/ha, preemergence
  Plant response rating, Signalgrass: 30
Broadleaf signalgrass; 125 g ai/ha, preemergence
  Signalgrass plant response rating: 100
Broadleaf signalgrass; Preemergence, 62 g ai/ha
  Plant response rating, Signalgrass: 100
Broadleaf signalgrass; Preemergence, 31 g ai/ha
  Plant response rating, Signalgrass: 30
Virginia dayflower
  Plant response rating, Dayflower: 0
mustard; 16 g ai/ha, preemergence
  Plant response rating, Black Mustard: 0
mustard; 62 g ai/ha, Preemergence
  Black Mustard plant response rating: 80
mustard; 125 g ai/ha, preemergence
  Black Mustard plant response rating: 90
mustard; Preemergence, 31 g ai/ha
  Plant response rating, Black Mustard: 0
Prickly sida; 16 g ai/ha, preemergence
  Plant response rating, Prickly Sida: 0
Prickly sida; 62 g ai/ha, Preemergence
  Prickly Sida plant response rating: 30
Prickly sida; 125 g ai/ha, preemergence
  Prickly Sida plant response rating: 75
Prickly sida; Preemergence, 31 g ai/ha
  Plant response rating, Prickly Sida: 0
bermudagrass; 16 g ai/ha, preemergence
  Plant response rating, Bermudagrass: 0
bermudagrass; 62 g ai/ha, Preemergence
  Bermudagrass plant response rating: 75
bermudagrass; 125 g ai/ha, preemergence
  Bermudagrass plant response rating: 90
bermudagrass; Preemergence, 31 g ai/ha
  Plant response rating, Bermudagrass: 25
Common ragweed; [1]
  Ragweed plant response rating: 85
Common ragweed; [2]
  Ragweed plant response rating: 100
Common ragweed; 31 g ai/ha
  Plant response rating (0 to 100), Ragweed: 0
Common ragweed; 62 g ai/ha
  Plant response rating (0 to 100), Ragweed: 0
Common ragweed; 125 g ai/ha
  Plant response rating, Ragweed: 0
Common ragweed; 250 g ai/ha
  Plant response rating, Ragweed: 0
Common ragweed; [6]
  Ragweed plant response rating: 100
